Experimental data as given in ChEMBL document CHEMBL6153072, “Metabolically Stable Adenylation Inhibitors of Biotin Protein Ligase as Antibacterial Agents” (J Med Chem, 2025).

Tests used:
[1] = molecular target: T1, Biotin--[acetyl-CoA-carboxylase] ligase (Mycobacterium tuberculosis (strain ATCC 25618 / H37Rv), UniProt I6YFP0); assay: Binding affinity to Mycobacterium tuberculosis BPL assessed as dissociation constant by isothermal titration calorimetry
T1 sequence (I6YFP0 whole entry): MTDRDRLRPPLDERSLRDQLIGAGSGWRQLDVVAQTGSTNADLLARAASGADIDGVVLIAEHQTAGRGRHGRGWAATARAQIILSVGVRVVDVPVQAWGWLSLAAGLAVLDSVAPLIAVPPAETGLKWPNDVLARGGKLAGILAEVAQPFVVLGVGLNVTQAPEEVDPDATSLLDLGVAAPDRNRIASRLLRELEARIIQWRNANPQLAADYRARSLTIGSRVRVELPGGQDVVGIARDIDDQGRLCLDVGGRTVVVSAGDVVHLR

[2] = molecular target: T2, Biotin--[acetyl-CoA-carboxylase] ligase (Mycobacterium tuberculosis (strain ATCC 25618 / H37Rv)) (UniProt I6YFP0); assay: Binding affinity to Mycobacterium tuberculosis BPL assessed as change in gibbs free energy by isothermal titration calorimetry
T2 sequence (whole entry): T1 sequence (I6YFP0 whole entry)

[3] = molecular target: T2, Biotin--[acetyl-CoA-carboxylase] ligase (Mycobacterium tuberculosis (strain ATCC 25618 / H37Rv)); assay: Binding affinity to Mycobacterium tuberculosis BPL assessed as change in enthalpy by isothermal titration calorimetry
[4] = molecular target: T2, Biotin--[acetyl-CoA-carboxylase] ligase (Mycobacterium tuberculosis (strain ATCC 25618 / H37Rv)); assay: Binding affinity to Mycobacterium tuberculosis BPL assessed as change in entropy by isothermal titration calorimetry
[5] = system: Mycobacterium tuberculosis; assay: Antimicrobial activity against wild type Mycobacterium tuberculosis H37Rv assessed as inhibition of microbial growth incubated for 14 days in biotin-deficient GAST medium by broth microdilution assay; format: functional; details: 336 h, time 14 day
Staphylococcus aureus [6] = assay: Antimicrobial activity against methicillin-sensitive Staphylococcus aureus […] assessed as inhibition of microbial growth incubated for 14 days in biotin-deficient GAST medium by broth microdilution assay; format: functional; details: 336 h, time 14 day
Staphylococcus aureus [7] = assay: Antimicrobial activity against methicillin-resistant Staphylococcus aureus FPR3757 assessed as inhibition of microbial growth incubated for 14 days in biotin-deficient GAST medium by broth microdilution assay; format: functional; details: FPR3757, 336 h, time 14 day
[8] = AUC (0 to 24 hrs) in female CD-1 mouse at 5 mg/kg, iv administered […] measured after 24 hrs by LC-MS/MS analysis; format: ADME, organism-based; details: in vivo
[9] = Drug metabolism in female CD-1 mouse assessed as AUC (0 to 24 hrs) of adenosine-5-sulfamide metabolite at 5 mg/kg, iv administered […] measured after 24 hrs by LC-MS/MS analysis; format: ADME, organism-based; details: in vivo
[10] = Volume of distribution in female CD-1 mouse at 5 mg/kg, iv administered […] measured after 24 hrs by LC-MS/MS analysis; format: ADME, organism-based; details: in vivo
[11] = Clearance in female CD-1 mouse at 5 mg/kg, iv administered […] measured after 24 hrs by LC-MS/MS analysis; format: ADME, organism-based; details: in vivo
[12] = Half life in female CD-1 mouse at 5 mg/kg, iv administered […] measured after 24 hrs by LC-MS/MS analysis; format: ADME, organism-based; details: in vivo
[13] = AUC (0 to 24 hrs) in female CD-1 mouse at 10 mg/kg, iv administered […] measured after 24 hrs by LC-MS/MS analysis; format: ADME, organism-based; details: in vivo
[14] = Volume of distribution in female CD-1 mouse at 10 mg/kg, iv administered […] measured after 24 hrs by LC-MS/MS analysis; format: ADME, organism-based; details: in vivo
[15] = Clearance in female CD-1 mouse at 10 mg/kg, iv administered […] measured after 24 hrs by LC-MS/MS analysis; format: ADME, organism-based; details: in vivo
[16] = Half life in female CD-1 mouse at 10 mg/kg, iv administered via gavage measured after 24 hrs by LC-MS/MS analysis; details: in vivo
[17] = Cytotoxicity against African green monkey Vero cells; format: toxicity, cell-based, Chlorocebus sabaeus
[18] = Hepatic clearance in female CD-1 mouse at 5 mg/kg, iv administered […] measured after 24 hrs by LC-MS/MS analysis; format: ADME, organism-based; details: in vivo
[19] = Renal clearance in female CD-1 mouse at 5 mg/kg, iv administered […] measured after 24 hrs by LC-MS/MS analysis; format: ADME, organism-based; details: in vivo
HepG2 = assay: Cytotoxicity against human HepG2 cells assessed as inhibition of cell viability preincubated for 24 hrs and measured after 4 hrs by XTT assay; format: functional, cell-based

Compound	Kd [1] [nM]	deltaG [2] [kcal/mol]	deltaH [3] [kcal/mol]	TdeltaS [4] [kcal/mol]	MIC50 [5] [µM]	MIC50 (Staphylococcus aureus [6]) [µM]	MIC50 (Staphylococcus aureus [7]) [µM]	AUC(0-t) at 24 h [8] [ng·h/mL]	AUC [9] [ng·h/mL]	Vd [10] [L/kg]	clearance [11] [mL/min/kg]	half-life [12] [min]	AUC(0-t) at 24 h [13] [ng·h/mL]	Vd [14] [L/kg]	clearance [15] [mL/min/kg]	half-life at 24 h [16] [min]	IC50 [17] [nM]	CLH [18] [mL/min/kg]	CL renal at 24 h [19] [mL/min/kg]	IC50 (HepG2) [nM]
Nc1ncnc2c1ncn2[C@@H]1O[C@H](CNS(=O)(=O)NC(=S)NCCCC[C@@H]2SC[C@@H]3NC(=O)N[C@@H]32)[C@@H](O)[C@H]1O	60	-9.9	-14.2	4.3	> 100	28.7	7.2													
CC(CCC[C@@H]1SC[C@@H]2NC(=O)N[C@@H]21)C(=O)[N-]S(=O)(=O)NC[C@H]1O[C@@H](n2cnc3c(N)ncnc32)[C@H](O)[C@@H]1O.[Na+] (stereo partly drawn)	22	-10.4	-11.9	1.5	50	0.41	0.2	8640	29	0.54	10	39								
CC(=O)NC[C@H]1CN(c2ccc(N3CCOCC3)c(F)c2)C(=O)O1 [LINEZOLID]													11000	0.63	16.3	33				
Nc1ncnc2c1ncn2[C@@H]1O[C@H](CNS(N)(=O)=O)[C@@H](O)[C@H]1O																	6000			
Nc1ncnc2c1ncn2[C@@H]1O[C@H](CNS(=O)(=O)NC(=O)NCCCC[C@@H]2SC[C@@H]3NC(=O)N[C@@H]32)[C@@H](O)[C@H]1O	55	-9.9	-11.5	1.6	> 100	0.25	0.12													
Nc1ncnc2c1ncn2[C@@H]1O[C@H](Cn2cc(CCCCC[C@@H]3SC[C@@H]4NC(=O)N[C@@H]43)nn2)[C@@H](O)[C@H]1O	62	-9.9	-14.2	4.3	> 100	30	15													
Nc1ncnc2c1ncn2[C@@H]1O[C@H](CNS(=O)(=O)[N-]C(=O)CCCC[C@@H]2SC[C@@H]3NC(=O)N[C@@H]32)[C@@H](O)[C@H]1O.[Na+]		-12.4	-18.9	6.6	2.2	0.21	0.02	1450	782	0.94	58	11						22.5	22.5	
Nc1cccc2c1ncn2CCCCNS(=O)(=O)NC(=O)CCCC[C@@H]1SC[C@@H]2NC(=O)N[C@@H]21	220	-9.1	-12.3	3.2	21	> 30	> 30													
C[C@@H]1NC(=O)N[C@@H]1CCCCCC(=O)NS(=O)(=O)NC[C@H]1O[C@@H](n2cnc3c(N)cccc32)[C@H](O)[C@@H]1O	19	-10.6	-13.6	3	> 100	> 30	> 30													
Nc1cccc2c1ncn2[C@@H]1O[C@H](CNS(=O)(=O)NC(=O)CCCC[C@@H]2SC[C@@H]3NC(=O)N[C@@H]32)[C@@H](F)[C@H]1O	228	-9.1	-13.9	4.8	> 100	> 30	> 30													
Nc1ncnc2c1ncn2[C@@H]1O[C@H](CNS(=O)(=O)NCCCCC[C@@H]2SC[C@@H]3NC(=O)N[C@@H]32)[C@@H](O)[C@H]1O	23	-10.4	-23.2	12.8	> 100	28.7	14.4													
Nc1ncnc2c1ncn2[C@@H]1O[C@H](Cn2cc(C(=O)CCCC[C@@H]3SC[C@@H]4NC(=O)N[C@@H]43)nn2)[C@@H](O)[C@H]1O					> 100	29.4	29.4													
Nc1ncnc2c1ncn2[C@@H]1O[C@H](CNS(=O)(=O)NC(=O)NCCCCC[C@@H]2SC[C@@H]3NC(=O)N[C@@H]32)[C@@H](O)[C@H]1O	110	-9.4	-9.9	0.48	> 100	25.7	12.8													
Nc1ncnc2c1ncn2[C@@H]1O[C@H](CNS(=O)(=O)[N-]C(=O)NCCC[C@@H]2SC[C@@H]3NC(=O)N[C@@H]32)[C@@H](O)[C@H]1O.[Na+]				0.5	20	0.2	0.2	11200	32	0.45	7	42								> 100000
CN(C(=O)CCCC[C@@H]1SC[C@@H]2NC(=O)N[C@@H]21)S(=O)(=O)NC[C@H]1O[C@@H](n2cnc3c(N)ncnc32)[C@H](O)[C@@H]1O	120	-9.7	-9.6	0.14	> 100	> 30	> 30													
Nc1cccc2c1ncn2[C@@H]1O[C@H](CNS(=O)(=O)NC(=O)CCCC[C@@H]2SC[C@@H]3NC(=O)N[C@@H]32)[C@@H](O)[C@H]1O	220	-9.4	-13.9	4.5	> 100	> 30	> 30													
